In ChEMBL document CHEMBL1130874, “Heteroatom- and carbon-linked biphenyl analogs of Brequinar as immunosuppressive agents” (Bioorg Med Chem Lett, 1998):

Experiments:
[1] = molecular target: Dihydroorotate dehydrogenase (quinone), mitochondrial (Homo sapiens, UniProt Q02127); test: Immunosuppressive effect in an isolated enzyme assay using partially purified Dihydroorotate dehydrogenase from human liver for inhibition of the formation of orotate from radiolabeled dihydroorotate
[2] = Ability to inhibit proliferation in a mixture of human lymphocytes from two unrelated donors in MLR (human mixed lymphocyte reaction); format: functional, cell-based

Dihydroorotate dehydrogenase (quinone), mitochondrial, sequence (Q02127 whole entry): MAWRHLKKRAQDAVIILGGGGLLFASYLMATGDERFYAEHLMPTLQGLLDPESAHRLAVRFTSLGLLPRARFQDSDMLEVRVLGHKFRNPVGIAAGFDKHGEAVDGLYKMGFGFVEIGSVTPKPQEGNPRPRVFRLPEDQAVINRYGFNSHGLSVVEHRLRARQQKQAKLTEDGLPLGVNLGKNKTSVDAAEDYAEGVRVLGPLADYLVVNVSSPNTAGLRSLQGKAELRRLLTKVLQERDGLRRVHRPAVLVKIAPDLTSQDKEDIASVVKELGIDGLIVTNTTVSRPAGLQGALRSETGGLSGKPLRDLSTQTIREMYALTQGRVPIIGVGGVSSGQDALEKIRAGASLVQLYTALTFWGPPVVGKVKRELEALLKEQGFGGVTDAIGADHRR

Row | Ki [1] [nM] | Compound | IC50 [2] [nM]
1 | > 390 | CC(=O)N(c1cccc(-c2ccccc2)c1)c1nc2ccc(F)cc2c(C(=O)O)c1C | > 10000
2 | > 200 | Cc1c(OCc2ccc(-c3ccccc3)cc2)nc2ccc(F)cc2c1C(=O)O | > 10000
3 | 25 | Cc1ccccc1-c1cccc2c1CCN2c1nc2ccc(F)cc2c(C(=O)O)c1C | 1.6
4 | > 1000 | Cc1c(Oc2ccccc2)nc2ccc(F)cc2c1C(=O)O | > 10000
5 | 23 | Cc1c(-c2cn(C)c3c(-c4cccc(C(F)(F)F)c4)cccc23)nc2ccc(F)cc2c1C(=O)O | 7
6 | 21 | Cc1c(Oc2cccc(-c3ccccc3)c2)nc2ccc(F)cc2c1C(=O)O | 210
7 | 30 | COc1ccccc1-c1cccc2c1CCN2c1nc2ccc(F)cc2c(C(=O)O)c1C | 4.1
8 | > 200 | Cc1c(Nc2ccccc2)nc2ccc(F)cc2c1C(=O)O | > 10000
9 | > 1000 | Cc1c(Oc2ccc(-c3ccccc3)cc2)nc2ccc(F)cc2c1C(=O)O | > 10000
10 | > 430 | Cc1c(Nc2ccc(-c3ccccc3)cc2)nc2ccc(F)cc2c1C(=O)O | > 10000
11 | 40 | COc1ccccc1-c1cccc2c(-c3nc4ccc(F)cc4c(C(=O)O)c3C)cn(C)c12 | 650
12 | 24 | Cc1c(N2CCc3c(-c4cccc(C(F)(F)F)c4)cccc32)nc2ccc(F)cc2c1C(=O)O | 0.41
13 | 34 | COc1cccc(-c2cccc3c2CCN3c2nc3ccc(F)cc3c(C(=O)O)c2C)c1 | 4
14 | > 130 | Cc1c(-c2c[nH]c3c(-c4ccccc4)cccc23)nc2ccc(F)cc2c1C(=O)O | 1600
15 | 30 | Cc1c(N2CCc3c(-c4ccccc4)cc(F)cc32)nc2ccc(F)cc2c1C(=O)O | 41
16 |  | Cc1c(-c2ccc(-c3ccccc3F)cc2)nc2ccc(F)cc2c1C(=O)O [BREQUINAR SODIUM] | 15

Row | Compound | Ki [1] [nM] | IC50 [2] [nM]
17 | COc1cccc(-c2cccc3c(-c4nc5ccc(F)cc5c(C(=O)O)c4C)cn(C)c23)c1 | 32 | 190
18 | Cc1c(-c2cn(C)c3c(-c4ccccc4)cccc23)nc2ccc(F)cc2c1C(=O)O | 27 | 140
19 | Cc1c(N(C)c2cccc(-c3ccccc3)c2)nc2ccc(F)cc2c1C(=O)O | 240 | > 10000
20 | COc1cc(-c2ccccc2)c2c(c1)N(c1nc3ccc(F)cc3c(C(=O)O)c1C)CC2 | 22 | 35
21 | Cc1c(-c2cccc3c(-c4ccccc4)cccc23)nc2ccc(F)cc2c1C(=O)O | 26 | 150
22 | Cc1c(-n2cnc3c(-c4ccccc4)cccc32)nc2ccc(F)cc2c1C(=O)O | 71 | 4700
23 | Cc1c(N2CCc3c(-c4ccccc4F)cccc32)nc2ccc(F)cc2c1C(=O)O | 24 | 2.8
24 | Cc1c(Nc2cccc(-c3ccccc3)c2)nc2ccc(F)cc2c1C(=O)O | 83 | 340
25 | Cc1c(-n2ccc3c(-c4ccccc4)cccc32)nc2ccc(F)cc2c1C(=O)O | 4.5 | 380
26 | Cc1c(N2CCc3c(-c4ccccc4)cccc32)nc2ccc(F)cc2c1C(=O)O | 15 | 26
27 | Cc1c(OCc2cccc(-c3ccccc3)c2)nc2ccc(F)cc2c1C(=O)O | 330 | > 10000
